US4870160A, “Polypeptides with laminin activity” (Regents of the University of Minnesota, priority 1987, dated 1989)
Peptide text beside a SMILES is read from it.

Experiments:
[1] = system: Rat C6 glioma cell line; test: Cell adhesion assay for C6 cell line (Example 6C); type: cell-based; conditions: FIG. 12
Description: (§1) Adhesion was measured using 96 well microtiter plates adsorbed with three different amounts (0.1; 1.0; and 10.0 μg/per well) of peptides 9, 11-18, BSA and laminin. Cultures of cells which were 60-80% confluent were metabolically labeled for 24 hours with the addition of 3 mCi/ml of ^3 H-amino acid mixture. On the day of the assay, the cells were harvested by trypsinization, the trypsin was inhibited by the addition of serum, and the cells were washed free of this mixture and resuspended in DMEM buffered with HEPES at pH 7.2. The adhesion medium also contained 2 mg/ml BSA. The cells were adjusted to a concentration of 3-4×10^4 /ml and 100 μls of this cell suspension was added to the wells. The assay mixture was then incubated at 37° C for 120 minutes. At the end of the incubation, the wells were washed with warm PBS containing 10 mM Ca^++, and the adherent population was solubilized with 0.5N NaOH containing 1% sodium dodecyl sulfate. The solubilized cells were then quantitated using a liquid scintillation counter. Each determination was done in triplicate.
Rat C6 glioma cell line was purchased from the American Type Culture Collection (identification number CCL 107). Culturing techniques were as described in part A. Labelling and harvesting techniques were as described in Example 5. Cell adhesion assay was performed as described in Example 5.

[2] = system: Murine fibrosarcoma cells (uv-2237-MM); test: Cell adhesion assay for MM fibrosarcoma cell line (Example 6B); type: cell-based; conditions: FIG. 11
Description: as §1
Murine fibrosarcoma cells (uv-2237-MM) were originally provided by Dr. I. J. Fidler of Anderson Hospital, University of Texas Health Sciences Center, Houston, Tex. Culturing, labeling and harvesting techniques were as described in part A. Cell adhesion assay was performed as described in Example 5.

[3] = system: Bovine aortic endothelial cells; test: Aortic endothelial cell adhesion assay (Example 5); type: cell-based; conditions: 0.1; 1.0; and 10.0 μg/per well adsorbed, 120 minutes at 37° C, FIG. 9
Description: Bovine aortic endothelial cells were isolated according to the following protocol. Aortas were obtained from a local slaughterhouse, washed in cold phosphate buffered saline (PBS) (136 mM NaCl, 2.6 mM KCl, 15.2 mM Na2HP04, pH 7.2) and processed within 2 hours. Crude collagenase (CLS III, 125-145 units per mg dry weight, Cooper Biomedical) was used at 2 mg/ml in Dulbecco's modified Eagle's medium (DMEM) (GIBCO). The vessel was clamped at the distal end, filled with the collagenase-PBS solution and digestion was carried out for 10 minutes. The lumenal contents were harvested, followed by the addition of fresh collagenase for two additional 10-minute periods. The enzyme-cell suspensions were added to an equal volume of DMEM containing 10% fetal bovine serum (FBS) to inhibit the enzyme and spun in a centrifuge at 400×g for 10 minutes. The resulting cell pellet was resuspended in DMEM containing 10% FBS, 100 units/ml of penicillin G, 100 μg/ml of streptomycin and 100 μg/ml of crude fibroblast growth factor. Cells are cultured in 75 cm^2 flasks in a humidified 5% CO2 atmosphere at 37° C. Cultures were fed twice a week with the same medium and cells were used in assays when approximately 75% confluent. Cells were identified as endothelial in nature by characteristic cobblestone morphology, contact inhibition of growth upon reaching confluency, and positive immunofluorescent staining for factor VIII:RAg (Miles Laboratories) [S. Schwartz, In Vitro, 14, 966 (1978)]. Only endothelial cells, megakaryocytes and platelets are known to contain the factor VIII:RAg. This method routinely gives a high yield of endothelial cells with little contamination (less than 5%) by smooth muscle cells, pericytes or fibroblasts as judged by phase contrast microscopy as well as by immunostaining.
as §1, with “At the end of the incubation, the wells were washed with warm PBS containing 10 mM Ca^++, and the adherent population was solubilized with 0.5N NaOH containing 1% sodium dodecyl sulfate.” left out, “Each determination was done in triplicate.” left out

[4] = molecular target: intact, native laminin (Mus musculus, UniProt P02469+P19137); test: Inhibition of heparin binding to laminin by peptide fragments in solution (Example 3); conditions: peptides in solution 1 mg/ml to 1 μg/ml, laminin coated on plastic at 60 μg/ml, FIG. 6
Description: Peptides 9, 11-14 and 16 in solution (and not absorbed to plastic), were screened for the ability to inhibit the binding of heparin to intact, native laminin coated on plastic. This experimental approach avoids problems due to differential coating of peptides in heparin binding assays. Laminin at 60 μg/ml in PBS was coated on 96-well plates, using 50 μls per well and dried overnight at 28+ C. The wells were then treated for two hours with 2 mg/ml BSA in wash buffer (described above in Example 2). Peptides at various dilutions ranging from 1 mg/ml to 1 μg/ml in PBS and CHAPS (Cholamido-propyl-dimethyl-Axmmonio-PropaneSulfonate)(a detergent used to avoid non-specific sticking) were co-incubated with a standard amount of ^3 H-heparin (25,000 cpm per well 5 μg/ml final concentration) for two hours at 37° C. and the mixture was then transferred to the laminin coated plate (50 μl) and allowed to incubate for another two hours at 37° C. The wells were then washed and radioactivity was counted as described above.

[5] = Heparin binding assay on nitrocellulose sheets (Example 1); conditions: peptide on nitrocellulose, 1 mg/ml to 1 μg/ml, 2 hours, FIG. 4
Description: The assay for heparin binding utilizes nitrocellulose sheets as subtrata to bind peptides or proteins to be tested for heparin binding activity. Peptides 9 and 11-18 were solubilized in 50 mM NH3 HCO3 to form solutions of 1 mg/ml. Each solution was serially diluted 1:1 in the same buffer producing concentrations from 1 mg/ml to 1 μg/ml. Nitrocellulose sheets which had been presoaked in 50 mM NH3 HCO3 were placed in a 96 well dot blot apparatus (Bethesda Research Laboratories, Bethesda, MD, and 100 μl of various concentrations of each peptide were aspirated through the wells. Each well was then washed three times with binding buffer (10 mM Tris-HCl, pH 8.0, 0.15 M NaCl), and the filters were removed and allowed to air dry overnight. The filters were then equilibriated for 5 minutes at room temperature in binding buffer which contained 10 mM CaCl2. ^3 H-heparin was then diluted to a concentration of 50,000 cpm/ml in binding buffer (with Ca^++), and nitrocellulose sheets were incubated in the presence of this mixture for 2 hours. The filters were then washed four times with binding buffer, and air dried. The individual spots of samples were cut out of the nitrocellulose, immersed in scintillation fluid and bound heparin was quantitated with a Beckman LS-3801 liquid scintillation counter. […]

inhibition of binding of heparin to laminin [4] | binding of ^3 H-heparin [5] | SMILES | cell adhesion [1] | cell adhesion [2] | endothelial cell adhesion [3]
interact most strongly with heparin | strongly bound ^3 H-heparin | CSCC[C@H](NC(=O)CNC(=O)[C@H](CCCCN)NC(=O)[C@H](CCC(=O)O)NC(=O)[C@H](Cc1ccccc1)NC(=O)[C@H](CS)NC(=O)[C@@H](NC(=O)[C@@H]1CCCN1C(=O)[C@H](CCCNC(=N)N)NC(=O)[C@@H]1CCCN1C(=O)[C@H](CC(C)C)NC(=O)[C@@H](NC(=O)[C@@H](NC(=O)[C@H](Cc1ccc(O)cc1)NC(=O)[C@@H](N)CCCNC(=N)N)C(C)C)C(C)C)C(C)C)C(=O)N[C@@H](CC(N)=O)C(=O)N[C@@H](Cc1ccc(O)cc1)C(=O)N[C@H](C(=O)N[C@H](C(=O)N[C@@H](CCCNC(=N)N)C(=O)O)C(C)C)[C@@H](C)O [Peptide F9] (H-RYVVLPRPVCFEKGMNYTVR-OH) | potent promoters of cell adhesion | potent promoters of cell adhesion | potent promoters of endothelial cell adhesion
interact most strongly with heparin | strongly bound ^3 H-heparin | CC[C@H](C)[C@H](NC(=O)[C@H](CCCCN)NC(=O)[C@H](CC(C)C)NC(=O)[C@H](C)NC(=O)[C@H](CCCCN)NC(=O)[C@H](C)NC(=O)[C@H](CCCCN)NC(=O)[C@H](CCC(=O)O)NC(=O)[C@H](CC(C)C)NC(=O)[C@H](Cc1ccccc1)NC(=O)[C@H](CCCCN)NC(=O)[C@H](Cc1c[nH]cn1)NC(=O)[C@@H](NC(=O)[C@H](CCCNC(=N)N)NC(=O)[C@H](CC(N)=O)NC(=O)[C@@H](NC(=O)[C@H](CC(C)C)NC(=O)[C@@H](N)CCC(=O)O)[C@@H](C)O)[C@@H](C)O)C(=O)O [Peptide F13, ELTNRTHKFLEKAKALKI] (H-ELTNRTHKFLEKAKALKI-OH) | potent promoters of cell adhesion | potent promoters of cell adhesion | potent promoters of endothelial cell adhesion
